Data on 17 compounds can be found in publication PMC4567266 (PLoS ONE, 2015).

Common to all, as to format: cell-based
Test [1] concerns THP-1 (a human monocytic leukemia cell line). As to the kind of experiment: Cell proliferation assay (WST-8), THP-1. As to conditions: for IC50: DMSO less than 1%. As for the experimental part: (§1) We used THP-1 (a human monocytic leukemia cell line), L929 (a mouse fibroblast cell line), RAW264.7 (a mouse macrophage cell line), and mouse bone marrow-derived macrophages cultured in a flask or plate at 37°C, under a humidified atmosphere of 5% CO2 in air. THP-1 and L929 were obtained from Japan Health Science Foundation. RAW264.7 was purchased from DS Pharma Biomedical Co., Ltd. These cells were cultured in RPMI1640 + 10% FCS consisting of RPMI1640 [+] L-glutamine (Gibco) supplemented with antibiotics (penicillin and streptomycin; Gibco) and 10% fetal calf serum (FCS; Biowest). In cell proliferation assays, they were cultured in flat-bottomed 96-well plates (Corning) in 100 μl/well at a concentration of 1 x 10^5/ml with or without test samples. In the case of mouse peritoneal cells, we employed 1 x 10^6/ml as a cell concentration. After finishing the culture, we added 10 μl of a coloring reagent, WST-8 (Kishida Chemical Co.), which converts to water-soluble colored formazan by the action of a mitochondrial enzyme. Cells were additionally incubated with WST-8 for 3 h and the coloring reaction was stopped by adding 10 μl of 0.1% sodium dodecyl sulfate (SDS) solution. The absorbance of each well was then measured at 450 nm with a Multiskan Ascent plate reader (Labsystems). In principle, we performed cell proliferation assays in duplicate. Half-maximal (50%) inhibitory concentration (IC50) of each test sample was calculated according to the reported formula [15].
(§2) We examined the inhibitory activities of food constituents in cell proliferation assays. Test compounds used in the assays were as follows: curcumin (Wako or Sigma-Aldrich), zerumbone (Wako), genistein (Sigma-Aldrich), chalcone (Wako), corosolic acid (Wako), carnosol (Wako), ursolic acid (Wako), epigallocatechin (Sigma-Aldrich), isoflavone (Wako), apigenin (Wako), chrysin (Wako), flavanone (Wako), resveratrol (Wako), flavone (Wako), quercetin (Wako), daidzein (Wako), and clodronate (Sigma-Aldrich). These compounds were firstly dissolved with dimethyl sulfoxide (DMSO; Wako) and then appropriately diluted with RPMI1640 + 10% FCS to apply the assays. The final concentration of DMSO was adjusted not to exceed 1% at most in cell cultures.

For test [2], the system named is L929 (a mouse fibroblast cell line). Description: Cell proliferation assay (WST-8), L929. As to conditions: for IC50: means ± range (n = 2) or standard deviation (n > 2), DMSO less than 1%. As for the experimental part:
as §1, §2
Background: Formazan colour is commonly taken as a measure of viable cells.

For test [3], the system named is mouse bone marrow-derived macrophages. Description: Cell proliferation assay (WST-8), mouse bone marrow-derived macrophages. As to conditions: for IC50: means ± range (n = 2) or standard deviation (n > 2), DMSO less than 1%. As for the experimental part:
as §1, §2

Test [4] relates to RAW264.7 (a mouse macrophage cell line). Description: Cell proliferation assay (WST-8), RAW264.7. As to conditions: cultured for 3 days. Here is the method:
as §1, with “In the case of mouse peritoneal cells, we employed 1 x 10^6/ml as a cell concentration. After finishing the culture, we added 10 μl of a coloring reagent, WST-8 (Kishida Chemical Co.), which converts to water-soluble colored formazan by the action of a mitochondrial enzyme. Cells were additionally incubated with WST-8 for 3 h and the coloring reaction was stopped by adding 10 μl of 0.1% sodium dodecyl sulfate (SDS) solution.” left out, “In principle, we performed cell proliferation assays in duplicate.” left out
After culturing, they were incubated with WST-8 for 3 h to assess viable cells in the culture. Resultant coloring reaction by WST-8 was measured with a plate-reader at the absorbance of 450 nm. In the vertical axis, the absorbance of only the medium was defined as 0%. Symbols in the Figure represent the percentage of absorbance with curucmin or liposomes to that without the test samples. […]

Setting [5] is: Homo sapiens, THP-1, means ± range (n = 2) or standard deviation (n > 2).
Where [6] appears, read: means ± range (n = 2) or standard deviation (n > 2).

With `O=c1cc(-c2ccc(O)cc2)oc2cc(O)cc(O)c12` [Apigenin, apigenin], the concentration for half-maximal inhibition (IC50) (in general, the concentration that gives 50% inhibition) in test [1] (setting [5]) was 37.9 ± 3.9 µM; in test [2] (Mus musculus, L929), 46.4 ± 3.3 µM; in test [3] (Mus musculus, Macrophage) it was 70 ± 19.8 µM.

Take `CC(C)c1cc2c(c(O)c1O)[C@@]13CCCC(C)(C)[C@@H]1C[C@@H]2OC3=O` [Carnosol, carnosol]: the IC50 in test [1] (setting [5]) is under 30 µM; in test [1] (setting [6]) it was 20.5 ± 2.7 µM; in test [2] (Mus musculus, L929), 50.1 ± 2.6 µM; in test [3] (Mus musculus, Macrophage), 63.8 ± 5.5 µM.

Regarding `O=C(/C=C/c1ccccc1)c1ccccc1` [Chalcone, chalcone], the IC50 is under 30 µM in test [1] (setting [5]); 17.4 ± 1.8 µM in test [1] (setting [6]); 69.5 ± 1.2 µM in test [2] (Mus musculus, L929); 104 µM in test [3] (Mus musculus, Macrophage).

On to `O=c1cc(-c2ccccc2)oc2cc(O)cc(O)c12` [Chrysine, chrysin], for which the IC50 in test [1] (setting [5]) was found to be 46.8 ± 2.8 µM; in test [2] (Mus musculus, L929) it was 76.3 ± 11 µM; in test [3] (Mus musculus, Macrophage), 58.2 µM.

On to `O=P(O)(O)C(Cl)(Cl)P(=O)(O)O` [Clodronate, clodronate, reference compound], for which, in test [1], the “Inhibition of THP-1 cell proliferation (in words)” value is given as “weaker activity”. For the same compound, the IC50 in test [1] (setting [5]) is over 400 µM; in test [2] (Mus musculus, L929) it was 336 ± 54.9 µM; in test [3] (Mus musculus, Macrophage) it was 25.7 ± 15.6 µM. The “Inhibition of L929 cell proliferation (in words)” value in test [2] is recorded as “weaker activity”. Also, in test [3], the “Inhibition of mouse bone marrow-derived macrophage proliferation (in words)” value was “comparable strong activity”.

In the case of `C[C@H]1[C@H](C)CC[C@]2(C(=O)O)CC[C@]3(C)C(=CC[C@@H]4[C@@]5(C)C[C@@H](O)[C@H](O)C(C)(C)[C@@H]5CC[C@]43C)[C@H]12` [Corosolic acid, corosolic acid], the IC50 in test [1] (setting [5]) was under 30 µM; in test [1] (setting [6]), 18.2 ± 0.2 µM; in test [2] (Mus musculus, L929) it was 17.7 ± 0.2 µM; in test [3] (Mus musculus, Macrophage) it was 19.6 ± 0.6 µM.

Consider `COc1cc(/C=C/C(=O)CC(=O)/C=C/c2ccc(O)c(OC)c2)ccc1O` [Curcumin, diferuloylmethane], for which, in test [1], the “Inhibition of THP-1 cell proliferation (in words)” value is on record as “dose-dependent inhibition”. Also, the IC50 in test [1] (setting [6]) was 13 ± 3.2 µM; in test [1] (means ± range (n = 2) or standard deviation (n > 2), listed as curcumin), under 30 µM; in test [2] (Mus musculus, L929), 22.8 ± 10.8 µM; in test [3] (Mus musculus, Macrophage), 22.4 ± 3.6 µM. Further, the “Inhibition of RAW264.7 cell proliferation (in words)” value in test [4] was “dose-dependent inhibition”.

With `O=c1c(-c2ccc(O)cc2)coc2cc(O)ccc12` [Daidzein, daidzein], the IC50 in test [1] (setting [5]) was over 400 µM; in test [2] (Mus musculus, L929), 220 ± 57.9 µM; in test [3] (Mus musculus, Macrophage), 65.1 ± 33.5 µM.

`Oc1cc(O)c2c(c1)O[C@H](c1cc(O)c(O)c(O)c1)[C@H](O)C2` [Epigallocatechin, epigallocatechin]: the IC50 in test [1] (setting [5]) was 37 ± 29.6 µM; in test [2] (Mus musculus, L929) it was 40.1 ± 3.7 µM; in test [3] (Mus musculus, Macrophage), 157 ± 19.9 µM.

In the case of `O=C1CC(c2ccccc2)Oc2ccccc21` (stereo not drawn) [Flavanone, flavanone], the IC50 in test [1] (setting [6]) was 55.1 ± 10.9 µM; in test [2] it was 211 ± 29.6 µM; in test [3], 225 ± 66.1 µM.

On to `O=c1cc(-c2ccccc2)oc2ccccc12` [Flavone, flavone], for which the IC50 in test [1] (setting [5]) was found to be 86.9 ± 4.1 µM; in test [2] (Mus musculus, L929), 34.5 ± 3.4 µM; in test [3] (Mus musculus, Macrophage), 180 µM.

For `O=c1c(-c2ccc(O)cc2)coc2cc(O)cc(O)c12` [Genistein, genistein], the IC50 in test [1] (setting [5]) is under 30 µM; in test [1] (setting [6]), 16 ± 6.1 µM; in test [2] (Mus musculus, L929), 28.2 ± 7.5 µM; in test [3] (Mus musculus, Macrophage) it was 29 ± 21.5 µM.

As for `O=c1c(-c2ccccc2)coc2ccccc12` [Isoflavone, isoflavone], the IC50 in test [1] (setting [5]) is 37.6 ± 11.6 µM; in test [2] (Mus musculus, L929), 65.5 ± 3.6 µM; in test [3] (Mus musculus, Macrophage), 106 ± 7.8 µM.

As to `O=c1c(O)c(-c2ccc(O)c(O)c2)oc2cc(O)cc(O)c12` [Quercetin, quercetin], the IC50 was 125 ± 24.1 µM in test [1] (setting [5]); 117 ± 32.5 µM in test [2] (Mus musculus, L929); 126 ± 83.4 µM in test [3] (Mus musculus, Macrophage).

Regarding `Oc1ccc(/C=C/c2cc(O)cc(O)c2)cc1` [Resveratrol, resveratrol], the IC50 in test [1] (setting [5]) turned out to be 64.6 ± 8.5 µM; in test [2] (Mus musculus, L929) it was 84.8 ± 29.1 µM; in test [3] (Mus musculus, Macrophage), 77.2 ± 13 µM.

As for `C[C@H]1[C@H](C)CC[C@]2(C(=O)O)CC[C@]3(C)C(=CC[C@@H]4[C@@]5(C)CC[C@H](O)C(C)(C)[C@@H]5CC[C@]43C)[C@H]12` [Ursolic acid, ursolic acid], the IC50 was under 30 µM in test [1] (setting [5]); 24.6 ± 3.4 µM in test [1] (setting [6]); 30.7 ± 0.8 µM in test [2] (Mus musculus, L929); 16.3 ± 4.5 µM in test [3] (Mus musculus, Macrophage).

Take `C/C1=C\CC(C)(C)/C=C/C(=O)/C(C)=C/CC1` [Zerumbone, zerumbone]: the IC50 in test [1] (setting [5]) is under 30 µM; in test [1] (setting [6]) it was 16 ± 0.5 µM; in test [2] (Mus musculus, L929), 30.4 ± 0.1 µM; in test [3] (Mus musculus, Macrophage), 32.1 µM.
